Patent US12145943B2, “Solid forms of 3-(5-Fluorobenzofuran-3-yl)-4-(5-methyl-5H-[1,3]dioxolo[4,5-f]indol-7-yl)pyrrole-2,5-dione” (Actuate Therapeutics Inc., priority 2017, dated 2024)
In brackets after ≈: the same amount, converted by molar mass.

Tests used:
Type in all cases: physicochemical
[1] = Dynamic vapor sorption (DVS) analysis; conditions: 80% relative humidity, 25.0±1.0° C.
Description: DVS analyses were conducted on an IGAsorp (HidenIsochema Ltd.). For an isotherm test, the chamber temperature was maintained by a water bath at constant 25.0±1.0° C.

[2] = Mechanical and pressure effects on crystalline form (XRPD)
Description: XRPD analyses were performed using an X-ray diffractometer (Bruker D8 advance) equipped with LynxEye detector. The instrument parameters were listed below. • Scan: 3° (2θ) to 40° (2θ) • Increment: 0.02° (2θ) • Scan speed: 0.3 sec/step • Voltage: 40 KV • Current: 40 mA • Rotation: On • Sample hold: Zero-background sample holder TGA Analysis 9.90 mg of 9-ING-41 Form I was weighed into mortar and ground for 5 min. […] 9-ING-41 Form I was pressed into two tablets. The weight of tablets was 38.9 mg and 36.2 mg, respectively.

[3] = Aqueous solubility study (water or buffers, HPLC of filtrate, XRPD of remaining solids); conditions: for solubility: shaken 200 rpm 24 h
Description: The solubility of 9-ING-41 polymorphic forms in water or buffers were determined using HPLC under the following conditions: • Instrument: Agilent 1260 Infinity Series • Diluent: Acetonitrile • Flow rate: 1.5 mL/min • Mobile phase: A: 0.05% TFA in water • B: 0.05% TFA in Acetonitrile • Injection volume: 1 μL • Column: XDB-C18, 4.6*50 mm, 1.8 μm • Column Temperature: 40° C. • Detection: 220 nm • Run Time: 8 minutes (2 minutes delay for next injection) • Gradient (T/B %): 0.0/70, 6.0/100, 8.0/100 10-30 mg of 9-ING-41 Form I was added to 2 mL of water or a buffer solution buffered at pH=1.2, 4.5, or 6.8. The samples were shaken at 200 rpm in a shaker for 24 h. The sample vials were visually examined to ensure saturation. 1 mL of each suspension was filtered at 24 hours through a 0.22 µm nylon syringe filter into another clean clear glass vial. The filtrate was analyzed using HPLC (accurately dilute if necessary) and the remaining solids were analyzed using XRPD.

[4] = Solubility in 30% acetonitrile in water (HPLC of filtrate, XRPD of remaining solids)
Description: The solubility of 9-ING-41 polymorphic forms in 30% Acetonitrile in water was determined using HPLC under the following conditions: • Instrument: Agilent 1260 Infinity Series • Diluent: 30% acetonitrile aqueous solution • Flow rate: 1.5 mL/min • Mobile phase: A: 0.05% TFA in water • B: 0.05% TFA in acetonitrile • Injection volume: […] • Column: XDB-C18, 4.6*50 mm, 1.8 μm • Column Temperature: 40° C. • Detection: 220 nm • Run Time: 8 minutes (2 minutes delay for next injection) • Gradient (T/B %): 0.0/70, 6.0/100, 8.0/100
About 5 mg of 9-ING-41 Form I was added into 2 mL of 30% acetonitrile/70% water (vol/vol). The sample was shaken at 200 rpm in a shaker for 24 h. The vial was visually examined to ensure saturation. 1 mL of the suspension was filtered through a 0.22 µm nylon syringe filter into another clean clear glass vial at 2 hours and at 24 hours. The filtrates were analyzed using HPLC (accurately dilute if necessary) and the remaining solids were analyzed using XRPD.

| Structure (SMILES) | weight gain (DVS) [1] | crystalline form after grinding (XRPD) ([2]; ground in mortar for 5 min) | crystalline form after pressing into tablets (XRPD) ([2]; pressed into tablets, then ground into powder) | crystalline form of remaining solids (XRPD) ([3]; after 24 h in water or pH 1.2, 4.5, 6.8 buffer) | solubility ([3]; pH 1.2 buffer) | solubility ([3]; pH 4.5 buffer) | solubility ([3]; pH 6.8 buffer) | 9-ING-41 in the filtrates by HPLC ([3]; water or pH 1.2, 4.5, 6.8 buffer, filtrate at 24 hours) | solubility ([3]; water) | crystalline form of remaining solids (XRPD) ([4]; after shaking in 30% acetonitrile/70% water) | solubility at 24 h ([4]; aqueous with cosolvent or surfactant or cyclodextrin, thermodynamic from solid, 30% acetonitrile/70% water (vol/vol), after 24 hours, read-out: 9-ING-41 in filtrate (solubility) by HPLC) | solubility at 2 h ([4]; aqueous with cosolvent or surfactant or cyclodextrin, thermodynamic from solid, 30% acetonitrile/70% water (vol/vol), after two hours, read-out: 9-ING-41 in filtrate (solubility) by HPLC) | solubility at 30 min ([4]; aqueous with cosolvent or surfactant or cyclodextrin, thermodynamic from solid, 30% acetonitrile/70% water (vol/vol), after 30 minutes) |
| --- | --- | --- | --- | --- | --- | --- | --- | --- | --- | --- | --- | --- | --- |
| Cn1cc(C2=C(c3coc4ccc(F)cc34)C(=O)NC2=O)c2cc3c(cc21)OCO3 [9-ING-41 Form I, 3-(5-fluoro-1-benzofuran-3-yl)-4-[5-methyl-2H,5H-[1,3]dioxolo[4,5-f]indol-7-yl]-2,5-dihydro-1H-pyrrole-2,5-dione] | about 0.23 % by weight | had not changed | had not changed | no change in crystalline form | poor | poor | poor | could not be detected | poor | no change in crystalline form | 48 µg/mL (≈ 119 µM) | 46 µg/mL (≈ 114 µM) |  |
| Cn1cc(C2=C(c3coc4ccc(F)cc34)C(=O)NC2=O)c2cc3c(cc21)OCO3 [Amorphous 9-ING-41, 3-(5-fluorobenzofuran-3-yl)-4-(5-methyl-5H-[1,3]dioxolo[4,5-f]indol-7-yl)pyrrole-2,5-dione] |  |  |  |  |  |  |  |  |  |  |  |  | 57 µg/mL (≈ 141 µM) |
